Test results as given in publication PMC8305873, “Design and heterologous expression of a novel dimeric LL37 variant in Pichia pastoris” (Microbial Cell Factories, 2021).
Converted amounts (≈) assume the structure as drawn. Read-outs that look alike come from different tables or passages of the source. Where a SMILES comes first, the peptide text is derived from it.

How the values were obtained:
bacteria = conditions: when no antimicrobial activity is detected at 32 µM, 64 µM is used
Procedure: The minimum inhibitory concentration (MIC) is a vital indicator for evaluating the antimicrobial activity of AMPs. The determination method refers to the improved method of Dong et al.. The strains to be tested were inoculated in Mueller Hinton broth (MHB) medium and cultured at 200 rpm and 37 °C until the logarithmic growth phase, and then the number of colonies was adjusted to approximately 10^5 CFU/mL. The 95 µL of bovine serum albumin (BSA) diluent (0.01% acetic acid and 0.2% BSA) and 5 µL of peptide (1.28 mM) were added to the first row of the 96-well plate, and 50 µL of BSA diluent was added to the other columns. After mixing in the first row, 50 µL of the mixture was aspirated and added to the second column and so on to the 11th row. After being cultured at 37 °C for 18–24 h, the minimum peptide concentration required to inhibit bacterial growth was the MIC value. All experiments were conducted at least three different times.
The safety of peptides is usually assessed by hemolytic activity. The collected blood of type B from healthy donor was centrifuged at 1000×g for 5 min to collect red blood cells. The red blood cells were then washed and resuspended in 10 mM PBS (pH 7.4). Fifty microliters of diluted red blood cells and an equal volume of peptide solution (2–128 µM) were incubated in a 96-well plate at 37 °C for 1 h. The red blood cell suspension treated with 0.1% Triton X-100 was used as a positive control (100% hemolysis), and untreated blood cell suspension was used as a negative control. The 96-well plate was centrifuged at 1000×g for 5 min at 4 °C, and then the supernatant was transferred to a new 96-well plate. The absorbance at OD570 was measured with a microplate reader.

[1] = test system: S. Typhimurium ATCC 14028; type: cell-based, Salmonella Typhimurium; conditions: ATCC 14028
Procedure: (§1) All experiments were conducted at least three different times.

S. Typhimurium C 7731 = type: cell-based, Salmonella Typhimurium; conditions: C 7731
Procedure: as §1

S. faecalis ATCC 29212 = type: cell-based, Streptococcus faecalis; conditions: ATCC 29212
Procedure: as §1

S. aureus ATCC 29213 = type: cell-based, Staphylococcus aureus; conditions: ATCC 29213
Procedure: as §1

S. aureus ATCC 25923 = type: cell-based, Staphylococcus aureus; conditions: ATCC 25923
Procedure: as §1

human red blood cells = experiment: Hemolytic activity assay; type: cell-based; conditions: for MHC (minimum hemolysis concentration): concentration of peptide that causes 20% hemolysis, human red blood cells in 10 mM PBS pH 7.4, 37 °C 1 h, OD570
P. aeruginosa ATCC 27853 = type: cell-based, Pseudomonas aeruginosa; conditions: ATCC 27853
Procedure: as §1

E. coli ATCC 25922 [2] = type: cell-based, Escherichia coli; conditions: ATCC 25922
Procedure: as §1

E. coli UB 1005 = type: cell-based, Escherichia coli
Procedure: as §1

E. coli ATCC 078 = type: cell-based, Escherichia coli; conditions: ATCC 078
Procedure: as §1

[3] = test system: S. epidermidis ATCC 12228; type: cell-based, Staphylococcus epidermidis; conditions: ATCC 12228
Procedure: as §1

E. coli ATCC 25922 [4] = type: cell-based, Escherichia coli; conditions: ATCC 25922; remark: listed apart in the source
E. coli ATCC 25922 [5] = type: cell-based, Escherichia coli; conditions: ATCC 25922; remark: listed apart in the source
Procedure: as §1
The salt ions were added to the BSA solution and configured into different final concentrations of salt ions (150 mM NaCl, 4.5 mM KCl, 6 µM NH4Cl, 8 µM ZnCl2, 1 mM MgCl2, 2 mM CaCl2, and 4 µM FeCl3) solutions. The method discribed as above was referred to determine the MIC value of rLG against E. coli ATCC 25922 in the presence of different concentrations of salt ions.

| Structure (SMILES) | GM (geometric mean of the MIC value of the peptide against bacteria) (bacteria) | MIC [1] | MIC (S. Typhimurium C 7731) | MIC (S. faecalis ATCC 29212) | MIC (S. aureus ATCC 29213) | MIC (S. aureus ATCC 25923) | MHC (minimum hemolysis concentration) (human red blood cells) | MIC (P. aeruginosa ATCC 27853) | MIC (E. coli ATCC 25922 [2]) | MIC (E. coli UB 1005; UB 1005) | MIC (E. coli ATCC 078) | MIC [3] | further results |
| --- | --- | --- | --- | --- | --- | --- | --- | --- | --- | --- | --- | --- | --- |
| CC[C@H](C)[C@H](NC(=O)[C@H](CCCNC(=N)N)NC(=O)[C@H](CCC(N)=O)NC(=O)[C@@H](NC(=O)[C@@H](NC(=O)[C@H](CCCNC(=N)N)NC(=O)[C@H](CCCCN)NC(=O)[C@H](Cc1ccccc1)NC(=O)[C@H](CCCNC(=N)N)NC(=O)[C@H](CC(C)C)NC(=O)[C@H](Cc1ccccc1)NC(=O)[C@H](CCCNC(=N)N)NC(=O)[C@H](CCCCN)NC(=O)[C@@H](NC(=O)[C@H](CCCNC(=N)N)NC(=O)[C@H](CCC(N)=O)NC(=O)[C@@H](NC(=O)[C@@H](NC(=O)[C@H](CCCNC(=N)N)NC(=O)[C@H](CCCCN)NC(=O)[C@@H](N)Cc1ccccc1)[C@@H](C)CC)C(C)C)[C@@H](C)CC)[C@@H](C)CC)C(C)C)C(=O)N[C@@H](CCCCN)C(=O)N[C@@H](CCCNC(=N)N)C(=O)N[C@@H](Cc1ccccc1)C(=O)N[C@@H](CC(C)C)C(=O)N[C@@H](CCCNC(=N)N)C(=O)O [(FR)2] (H-FKRIVQRIKRFLRFKRIVQRIKRFLR-OH) | 1.62 µM | 2.22 ± 0.63 µM (≈ 7.78 µg/mL) | 1.11 ± 0.31 µM (≈ 3.89 µg/mL) | 2.00 ± 0.00 µM (≈ 7 µg/mL) | 2.00 ± 0.00 µM (≈ 7 µg/mL) | 3.78 ± 0.63 µM (≈ 13.2 µg/mL) | 16 µM | 2.22 ± 0.63 µM (≈ 7.78 µg/mL) | 1.22 ± 0.41 µM (≈ 4.27 µg/mL) | 1.00 ± 0.00 µM (≈ 3.5 µg/mL) | 1.11 ± 0.31 µM (≈ 3.89 µg/mL) | 2.00 ± 0.00 µM (≈ 7 µg/mL) | hemolysis (blood cells destroyed) (human red blood cells; at the highest peptide concentration (128 μM), human red blood cells, 37 °C 1 h, 0.1% Triton X-100 = 100%): approximately 43% |
| CC[C@H](C)[C@H](NC(=O)[C@H](CCCNC(=N)N)NC(=O)[C@H](CCC(N)=O)NC(=O)[C@@H](NC(=O)[C@@H](NC(=O)[C@H](CCCNC(=N)N)NC(=O)[C@H](CCCCN)NC(=O)[C@@H](N)Cc1ccccc1)[C@@H](C)CC)C(C)C)C(=O)N[C@@H](CCCCN)C(=O)N[C@@H](CCCNC(=N)N)C(=O)N[C@@H](Cc1ccccc1)C(=O)N[C@@H](CC(C)C)C(=O)N[C@@H](CCCNC(=N)N)C(=O)O [FR] (H-FKRIVQRIKRFLR-OH) |  | 8.00 ± 0.00 µM (≈ 14.1 µg/mL) | 8.00 ± 0.00 µM (≈ 14.1 µg/mL) | 4.00 ± 0.00 µM (≈ 7.04 µg/mL) | 8.00 ± 0.00 µM (≈ 14.1 µg/mL) | 16.00 ± 0.00 µM (≈ 28.2 µg/mL) |  | 16.00 ± 0.00 µM (≈ 28.2 µg/mL) | 7.11 ± 1.66 µM (≈ 12.5 µg/mL) | 2.44 ± 0.83 µM (≈ 4.29 µg/mL) | 8.00 ± 0.00 µM (≈ 14.1 µg/mL) | 3.78 ± 0.63 µM (≈ 6.65 µg/mL) | MIC, Control (E. coli ATCC 25922 [4]): 8 µM (≈ 14.1 µg/mL); MIC under physiological salt concentration, CaCl2 (E. coli ATCC 25922 [5]): > 32 µM; MIC under physiological salt concentration, FeCl3 (E. coli ATCC 25922 [5]): 16 µM; MIC under physiological salt concentration, GM (E. coli ATCC 25922 [5]): 19.50 µM; MIC under physiological salt concentration, KCl (E. coli ATCC 25922 [5]): 8 µM; MIC under physiological salt concentration, MgCl2 (E. coli ATCC 25922 [5]): 32 µM; MIC under physiological salt concentration, NH4Cl (E. coli ATCC 25922 [5]): 8 µM; MIC under physiological salt concentration, NaCl (E. coli ATCC 25922 [5]): > 32 µM; MIC under physiological salt concentration, ZnCl2 (E. coli ATCC 25922 [5]): 8 µM |
| CC[C@H](C)[C@H](NC(=O)[C@H](CCCNC(=N)N)NC(=O)[C@H](CCC(N)=O)NC(=O)[C@@H](NC(=O)[C@@H](NC(=O)[C@H](CCCNC(=N)N)NC(=O)[C@H](CCCCN)NC(=O)[C@H](Cc1ccccc1)NC(=O)[C@H](C)NC(=O)[C@H](CCCCN)NC(=O)[C@H](C)NC(=O)[C@H](C)NC(=O)[C@H](C)NC(=O)[C@H](CCC(=O)O)NC(=O)[C@H](C)NC(=O)[C@H](CCCNC(=N)N)NC(=O)[C@H](CC(C)C)NC(=O)[C@H](Cc1ccccc1)NC(=O)[C@H](CCCNC(=N)N)NC(=O)[C@H](CCCCN)NC(=O)[C@@H](NC(=O)[C@H](CCCNC(=N)N)NC(=O)[C@H](CCC(N)=O)NC(=O)[C@@H](NC(=O)[C@@H](NC(=O)[C@H](CCCNC(=N)N)NC(=O)[C@H](CCCCN)NC(=O)[C@@H](N)Cc1ccccc1)[C@@H](C)CC)C(C)C)[C@@H](C)CC)[C@@H](C)CC)C(C)C)C(=O)N[C@@H](CCCCN)C(=O)N[C@@H](CCCNC(=N)N)C(=O)N[C@@H](Cc1ccccc1)C(=O)N[C@@H](CC(C)C)C(=O)N[C@@H](CCCNC(=N)N)C(=O)O [LA] (H-FKRIVQRIKRFLRAEAAAKAFKRIVQRIKRFLR-OH) | 8.00 µM | 4.44 ± 1.25 µM (≈ 18.3 µg/mL) | 1.11 ± 0.31 µM (≈ 4.57 µg/mL) | > 32 µM | > 32 µM | > 32 µM | 32 µM | 4.44 ± 1.25 µM (≈ 18.3 µg/mL) | 2.22 ± 0.63 µM (≈ 9.14 µg/mL) | 1.11 ± 0.31 µM (≈ 4.57 µg/mL) | 2.44 ± 0.83 µM (≈ 10 µg/mL) | > 32 µM |  |
| CC[C@H](C)[C@H](NC(=O)[C@H](CCCNC(=N)N)NC(=O)[C@H](CCC(N)=O)NC(=O)[C@@H](NC(=O)[C@@H](NC(=O)[C@H](CCCNC(=N)N)NC(=O)[C@H](CCCCN)NC(=O)[C@@H](N)Cc1ccccc1)[C@@H](C)CC)C(C)C)C(=O)N[C@@H](CCCCN)C(=O)N[C@@H](CC(=O)O)C(=O)N[C@@H](Cc1ccccc1)C(=O)N[C@@H](CC(C)C)C(=O)N[C@@H](CCCNC(=N)N)C(=O)O [FD] (H-FKRIVQRIKDFLR-OH) |  | 32.00 ± 0.00 µM (≈ 55 µg/mL) | 32.00 ± 0.00 µM (≈ 55 µg/mL) | > 32 µM | > 32 µM | > 32 µM |  | > 32 µM | 32.00 ± 0.00 µM (≈ 55 µg/mL) | 16.00 ± 0.00 µM (≈ 27.5 µg/mL) | 16.00 ± 0.00 µM (≈ 27.5 µg/mL) | > 32 µM |  |
| CC[C@H](C)[C@H](NC(=O)[C@H](CCCNC(=N)N)NC(=O)[C@H](CCC(N)=O)NC(=O)[C@@H](NC(=O)[C@@H](NC(=O)[C@H](CCCNC(=N)N)NC(=O)[C@H](CCCCN)NC(=O)[C@H](Cc1ccccc1)NC(=O)[C@H](CO)NC(=O)CNC(=O)CNC(=O)CNC(=O)CNC(=O)[C@H](CCCNC(=N)N)NC(=O)[C@H](CC(C)C)NC(=O)[C@H](Cc1ccccc1)NC(=O)[C@H](CCCNC(=N)N)NC(=O)[C@H](CCCCN)NC(=O)[C@@H](NC(=O)[C@H](CCCNC(=N)N)NC(=O)[C@H](CCC(N)=O)NC(=O)[C@@H](NC(=O)[C@@H](NC(=O)[C@H](CCCNC(=N)N)NC(=O)[C@H](CCCCN)NC(=O)[C@@H](N)Cc1ccccc1)[C@@H](C)CC)C(C)C)[C@@H](C)CC)[C@@H](C)CC)C(C)C)C(=O)N[C@@H](CCCCN)C(=O)N[C@@H](CCCNC(=N)N)C(=O)N[C@@H](Cc1ccccc1)C(=O)N[C@@H](CC(C)C)C(=O)N[C@@H](CCCNC(=N)N)C(=O)O [LG] (H-FKRIVQRIKRFLRGGGGSFKRIVQRIKRFLR-OH) | 2.00 µM |  |  |  |  |  | 64 µM |  |  | 1.22 ± 0.41 µM (≈ 4.66 µg/mL) |  |  | MIC (E. coli UB 1005; Table 3, recombinant vs synthetic LG, mean ± SD of three independent experiments): 1.33 ± 0.25 µM |
